We go through three compounds from patent US12208163B2, “Nanostructured lipid gel, method for preparation and use” (CONSEJO SUPERIOR DE INVESTIGACIONES CIENTÍFICAS, priority 2018, dated 2025).

Series [1] deals with chorioallantoic membrane of a chicken egg. The series is described as follows: Eye irritation assay (HET-CAM test). The conditions noted are these: for OII (Ocular Irritation Index): calculated from H, V and C times; for Classification: interpretation of OII by Table 2; for Clotting time / Haemorrhage time / Vasoconstriction time: time when change appears, observed for 5 minutes. The text has this:
With the aim of proposing potential uses of the gel in ocular applications, the possible eye irritation of this material was studied by means of a HET-CAM test. The gel formed from HSPC and OA with a molar ratio of 3:1 and a total lipid concentration of 5% was directly applied to the chorioallantoic membrane of a chicken egg due to its similarity to the human cornea. The appearance of vascular lesion or clotting in response to a compound is the basis for using this technique as an indicator of the probability that a substance may harm the mucous membranes, especially the cornea of the human eye, in vitro. In order to execute the method, the egg shell is carefully removed, moistening the membrane with a NaCl solution at 37° C. Next, the NaCl is removed and the white membrane is removed without harming any blood vessel. Next, the gel sample is applied and the appearance of haemorrhage (H), vasoconstriction (V) and/or clotting (C) can be observed for 5 minutes. Lastly, the Ocular Irritation Index (OII) is estimated using the following formula: [formula] H, V and C are the time in seconds when this change appears. If there is no alteration, they are equal to 300. The result obtained from the formula can be interpreted on the basis of Table 2: [table]

Series [2] can be described thus: in vitro cutaneous permeation assay on pig skin, fluorescence microscopy. The format is in vitro ADME. As to the method:
In order to evaluate the potential of these gels as cutaneous application systems, an in vitro permeation assay was conducted on pig skin and observations were made using fluorescence microscopy. Two gels were formed which were applied to the skin surface. One of them was formed by incorporating a red fluorescent probe (Rhodamine B) in order to observe in which areas of the skin the gel-forming phospholipids are retained. In the other gel, a fluorescent green probe (fluorescein) was added in the aqueous phase with the aim of simulating a possible water-soluble active ingredient incorporated to the gel. The gel was gently applied to the skin and left to permeate overnight at 37° C. in a humid environment. Next, the skin was cut into sections and the cells marked in blue in order to distinguish the different skin layers.

With `CCCCCCCCCCCCOS(=O)(=O)[O-].[Na+]` [1% SDS, SDS], in series [1], the “OII (Ocular Irritation Index)” value is recorded as 3.23, the Classification result was “Mildly”, the “Clotting time” value is 0 s and the “Haemorrhage time” value was 110 s. In addition, in series [1], the “Vasoconstriction time” value is on record as 0 s.
Turning to `[Na+].[OH-]` [NaOH], in series [1], the “OII (Ocular Irritation Index)” value is 17.79, the Classification result was “Irritating (9-21)”, the “Clotting time” value was 20 s and the “Haemorrhage time” value was 28 s. In series [1], the “Vasoconstriction time” value is listed as 13 s.
Consider `O=C1OC2(c3ccc(O)cc3Oc3cc(O)ccc32)c2ccccc21` [fluorescein], for which, in series [2] (control, aqueous solution with fluorescein without incorporating the gel), the “skin permeation of fluorescein from aqueous solution” value is recorded as “only slightly incorporated in the stratum corneum”. Further, in series [2] (fluorescein in gel, overnight at 37° C., FIG. 6), the “skin permeation of fluorescein dissolved in the aqueous phase of the gel” value was “capable of permeating the skin, covering the entire stratum corneum and epidermis”.
